SMILES strings stand for the structures.

The target of the assay is T1, human DP2 receptor (Homo sapiens, UniProt Q9Y5Y4).
T1 construct: expressed in transfected cells
T1 sequence (Q9Y5Y4 1-395): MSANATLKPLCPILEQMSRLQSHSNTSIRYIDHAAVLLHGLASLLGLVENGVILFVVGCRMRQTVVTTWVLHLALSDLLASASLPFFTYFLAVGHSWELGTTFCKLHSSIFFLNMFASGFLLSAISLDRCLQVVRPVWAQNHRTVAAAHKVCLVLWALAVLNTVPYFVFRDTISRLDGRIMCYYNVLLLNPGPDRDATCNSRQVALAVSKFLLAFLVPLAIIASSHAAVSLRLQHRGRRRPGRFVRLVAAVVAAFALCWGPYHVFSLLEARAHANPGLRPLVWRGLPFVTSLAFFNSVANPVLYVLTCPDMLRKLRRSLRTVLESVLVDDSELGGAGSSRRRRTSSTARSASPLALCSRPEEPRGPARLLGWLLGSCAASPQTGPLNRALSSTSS
Description: DP2/CRTH2 radioligand binding assay ([3H]PGD2). The settings on record: [3H]PGD2 binding, membranes of HEK293 cells expressing human DP2; read-out: hDP2. On the procedure:
The ability of a compound to bind to the human DP2 receptor is assessed via a radioligand binding assay using [^3H]PGD2. HEK293 cells stably expressing recombinant human DP2 are resuspended in 10 mM Hepes, 7.4 containing 1 mM DTT, lysed and centrifuged at 75,000×g to pellet the membranes. The membranes are resuspended in 10 mM Hepes, 7.4 containing 1 mM DTT and 10% glycerol to approximately 5 mg protein/ml. Membranes (2-10 μg protein/well) are incubated in 96-well plates with 1 nM [^3H]PGD2 and test compound in Assay Buffer (50 mM Hepes, 10 mM MnCl2, 1 mM EDTA, plus or minus 0.2% human serum albumin, pH 7.4) for 60 minutes at room temperature. The reactions are terminated by rapid filtration through Whatman GF/C glass fibre filter plates. The filter plates were pre-soaked in 0.33% polyethylenimine for 30 minutes at room temperature then washed in Wash Buffer (50 mM Hepes, 0.5 M NaCl pH 7.4) prior to harvesting. After harvesting, the filter plates are washed 3 times with 1 ml cold Wash Buffer then dried. Scintillant is then added to the plates and the radioactivity retained on the filters is determined on a Packard TopCount (Perkin Elmer). Specific binding is determined as total radioactive binding minus non-specific binding in the presence of 10 μM PGD2. IC50s were determined using GraphPad prism analysis of drug titration curves.
For `CCN(Cc1cc(C(F)(F)F)ccc1-c1cc(CC(=O)O)ccc1OC)C(=O)c1ccccc1` [Compound 1-80, {2′-[(Benzoyl-ethyl-amino)-methyl]-6-methoxy-4′-trifluoromethyl-biphenyl-3-yl}-acetic acid], the IC50 was less than 300 nM.
Next, `CCN(Cc1cc(C(F)(F)F)ccc1-c1cc(Cl)cc(CC(=O)O)c1)C(=O)OCc1ccc(Cl)cc1` [Compound 1-188, (5-Chloro-2′-{[(4-chloro-benzyloxycarbonyl)-ethyl-amino]-methyl}-4′-trifluoromethyl-biphenyl-3-yl)-acetic acid]: less than 300 nM; `CCN(Cc1cc(C(F)(F)F)ccc1-c1cc(CC(=O)O)cc(C(F)(F)F)c1)C(=O)OCc1ccc(Cl)cc1` [Compound 1-189, (2′-{[(4-Chloro-benzyloxycarbonyl)-ethyl-amino]-methyl}-5,4′-bis-trifluoromethyl-biphenyl-3-yl)-acetic acid]: less than 300 nM; `CCN(Cc1cc(C(F)(F)F)ccc1-c1cc(Cl)cc(CC(=O)O)c1)C(=O)OCc1ccc(F)cc1` [Compound 1-190, (5-Chloro-2′-{[ethyl-(4-fluoro-benzyloxycarbonyl)-amino]-methyl}-4′-trifluoromethyl-biphenyl-3-yl)-acetic acid]: less than 300 nM.
For `CCN(Cc1cc(C(F)(F)F)ccc1-c1cc(CC(=O)O)cc(C(F)(F)F)c1)C(=O)OCc1ccc(F)cc1` [Compound 1-191, (2′-{[Ethyl-(4-fluoro-benzyloxycarbonyl)-amino]-methyl}-5,4′-bis-trifluoromethyl-biphenyl-3-yl)-acetic acid] the value was less than 300 nM; for `CCN(Cc1cc(C(F)(F)F)ccc1-c1cc(Cl)cc(CC(=O)O)c1)C(=O)NCc1ccc(Cl)cc1` [Compound 1-192, {5-Chloro-2′-[3-(4-chloro-benzyl)-1-ethyl-ureidomethyl]-4′-trifluoromethyl-biphenyl-3-yl}-acetic acid], less than 300 nM.
For `CCN(Cc1cc(C(F)(F)F)ccc1-c1cc(CC(=O)O)cc(C(F)(F)F)c1)C(=O)NCc1ccc(Cl)cc1` [Compound 1-193, {2′-[3-(4-Chloro-benzyl)-1-ethyl-ureidomethyl]-5,4′-bis-trifluoromethyl-biphenyl-3-yl}-acetic acid] the value was less than 300 nM; for `CCN(Cc1ccc(OC)cc1-c1cc(CC(=O)O)ccc1OC)C(=O)OCc1ccc(F)cc1` [Compound 1-194, (2′-{[Ethyl-(4-fluoro-benzyloxycarbonyl)-amino]-methyl}-6,5′-dimethoxy-biphenyl-3-yl)-acetic acid], less than 300 nM; for `CCN(Cc1ccc(OC)cc1-c1cc(CC(=O)O)ccc1OC)C(=O)OCc1ccc(Cl)cc1` [Compound 1-195, (2′-{[(4-Chloro-benzyloxycarbonyl)-ethyl-amino]-methyl}-6,5′-dimethoxy-biphenyl-3-yl)-acetic acid], less than 300 nM.
Regarding `CCN(Cc1ccc(OC)cc1-c1cc(CC(=O)O)ccc1OC)C(=O)C1CC1` [Compound 1-196, {2′-[(Cyclopropanecarbonyl-ethyl-amino)-methyl]-6,5′-dimethoxy-biphenyl-3-yl}-acetic acid], the IC50 is less than 300 nM.
With `CCN(Cc1ccc(OC)cc1-c1cc(CC(=O)O)ccc1OC)C(=O)NCc1ccccc1` [Compound 1-197, [2′-(3-Benzyl-1-ethyl-ureidomethyl)-6,5′-dimethoxy-biphenyl-3-yl]-acetic acid], the IC50 was less than 300 nM.
For `CCN(Cc1cc(C(F)(F)F)ccc1-c1cc(CC(=O)O)ccc1OC)C(=O)NCc1cccnc1` [Compound 1-198] the value was less than 300 nM; for `CCN(Cc1cc(C(F)(F)F)ccc1-c1cc(CC(=O)O)ccc1OC)C(=O)NCc1ccncc1` [Compound 1-199, [2′-(1-Ethyl-3-pyridin-4-ylmethyl-ureidomethyl)-6-methoxy-4′-trifluoromethyl-biphenyl-3-yl]-acetic acid], less than 300 nM; for `CCN(Cc1cc(C(F)(F)F)ccc1-c1cc(CC(=O)O)ccc1OC)C(=O)NCc1ccc(Cl)nc1` [Compound 1-200, {2′-[3-(6-Chloro-pyridin-3-ylmethyl)-1-ethyl-ureidomethyl]-6-methoxy-4′-trifluoromethyl-biphenyl-3-yl}-acetic acid], less than 300 nM.
Next, `CCN(Cc1cc(C(F)(F)F)ccc1-c1cc(Cl)cc(CC(=O)O)c1)C(=O)NC` [Compound 1-201, [5-Chloro-2′-(1-ethyl-3-methyl-ureidomethyl)-4′-trifluoromethyl-biphenyl-3-yl]-acetic acid]: less than 300 nM; `CCN(Cc1cc(C(F)(F)F)ccc1-c1cc(CC(=O)O)cc(C(F)(F)F)c1)C(=O)NC` [Compound 1-202, [2′-(1-Ethyl-3-methyl-ureidomethyl)-5,4′-bis-trifluoromethyl-biphenyl-3-yl]-acetic acid]: less than 300 nM; `CCN(Cc1cc(C(F)(F)F)ccc1-c1cc(Cl)cc(CC(=O)O)c1)C(=O)c1ccccc1` [Compound 1-203, {2′-[(Benzoyl-ethyl-amino)-methyl]-5-chloro-4′-trifluoromethyl-biphenyl-3-yl}-acetic acid]: less than 300 nM.
For `CCN(Cc1cc(C(F)(F)F)ccc1-c1cc(CC(=O)O)cc(C(F)(F)F)c1)C(=O)c1ccccc1` [Compound 1-204, {2′-[(Benzoyl-ethyl-amino)-methyl]-5,4′-bis-trifluoromethyl-biphenyl-3-yl}-acetic acid] the value was less than 300 nM.
As to `CCN(Cc1cc(C(F)(F)F)ccc1-c1cc(CC(=O)O)ccc1OC)C(=O)Cc1ccccc1` [Compound 1-207, {2′-[(Ethyl-phenylacetyl-amino)-methyl]-6-methoxy-4′-trifluoromethyl-biphenyl-3-yl}-acetic acid], the IC50 is less than 300 nM.
As to `CCN(Cc1cc(C(F)(F)F)ccc1-c1cc(CC(=O)O)ccc1OC)C(=O)CCc1ccccc1` [Compound 1-208, (2′-{[Ethyl-(3-phenyl-propionyl)-amino]-methyl}-6-methoxy-4′-trifluoromethyl-biphenyl-3-yl)-acetic acid], the IC50 is less than 300 nM.
For `CCN(Cc1cc(C(F)(F)F)ccc1-c1cc(CC(=O)O)ccc1OC)C(=O)C1(O)CC1` [Compound 1-209, (2′-{[Ethyl-(1-hydroxy-cyclopropanecarbonyl)-amino]-methyl}-6-methoxy-4′-trifluoromethyl-biphenyl-3-yl)-acetic acid] the value was less than 300 nM; for `CCN(Cc1cc(C(F)(F)F)ccc1-c1cc(CC(=O)O)ccc1OC)C(N)=O` [Compound 1-210, {2′-[(1-Ethyl-ureido)-methyl]-6-methoxy-4′-trifluoromethyl-biphenyl-3-yl}-acetic acid], less than 300 nM.
Next, `CCN(Cc1cc(C(F)(F)F)ccc1-c1cc(Cl)cc(C(C)C(=O)O)c1)C(C)=O` (centres unmarked) [Compound 1-211, 2-{2′-[(Acetyl-ethyl-amino)-methyl]-5-chloro-4′-trifluoromethyl-biphenyl-3-yl}-propionic acid]: less than 300 nM; `CCN(Cc1cc(C(F)(F)F)ccc1-c1cc(Cl)cc(C(C)C(=O)O)c1)C(=O)C1CC1` (centres unmarked) [Compound 1-212, 2-{5-Chloro-2′-[(cyclopropanecarbonyl-ethyl-amino)-methyl]-4′-trifluoromethyl-biphenyl-3-yl}-propionic acid]: less than 300 nM; `CCN(Cc1cc(C(F)(F)F)ccc1-c1cc(C(C)C(=O)O)cc(C(F)(F)F)c1)C(C)=O` (centres unmarked) [Compound 1-213, 2-{2′-[(Acetyl-ethyl-amino)-methyl]-5,4′-bis-trifluoromethyl-biphenyl-3-yl}-propionic acid]: less than 300 nM.
For `CCN(Cc1cc(C(F)(F)F)ccc1-c1cc(C(C)C(=O)O)cc(C(F)(F)F)c1)C(=O)C1CC1` (centres unmarked) [Compound 1-214, 2-{2′-[(Cyclopropanecarbonyl-ethyl-amino)-methyl]-5,4′-bis-trifluoromethyl-biphenyl-3-yl}-propionic acid] the value was less than 300 nM.
For the molecule `CCN(Cc1cc(C(F)(F)F)ccc1-c1cc(C(C)C(=O)O)ccc1OC)C(=O)C1CC1` (centres unmarked) [Compound 1-217, 2-{2′-[(Cyclopropanecarbonyl-ethyl-amino)-methyl]-6-methoxy-4′-trifluoromethyl-biphenyl-3-yl}-propionic acid], the IC50 was less than 300 nM.
For `CCN(Cc1ccc(OC)cc1-c1cc(Cl)cc(CC(=O)O)c1)C(=O)C1CC1` [Compound 1-218, {5-Chloro-2′-[(cyclopropanecarbonyl-ethyl-amino)-methyl]-5′-methoxy-biphenyl-3-yl}-acetic acid] the value was less than 300 nM; for `CCN(Cc1ccc(OC)cc1-c1cc(Cl)cc(CC(=O)O)c1)C(=O)NCc1ccccc1` [Compound 1-219, [2′-(3-Benzyl-1-ethyl-ureidomethyl)-5-chloro-5′-methoxy-biphenyl-3-yl]-acetic acid], less than 300 nM.

Values taken from patent US8067445B2, “N,N-disubstituted aminoalkylbiphenyl antagonists of prostaglandin D2 receptors” (Panmira Pharmaceuticals, LLC, priority 2008, dated 2011).
